# Assay results published in ChEMBL document CHEMBL2363022, “Malaria Box Schistosomiasis Screening Data” (2013).
# Tests used:
# Format in all cases: functional
# Parameters in all cases: scale not given here
# Schistosoma mansoni [1] = tested on: Schistosoma mansoni
# Schistosoma mansoni [2] = tested on: Schistosoma mansoni; remark: listed apart in the source
# Schistosoma mansoni [3] = tested on: Schistosoma mansoni; remark: listed apart in the source
smiles,measurement,setting,value
CCCCCCc1cc(O)c2c3c(c(=O)oc2c1)CCC(C)C3 (stereo not given),Toxicity,Schistosoma mansoni [1],0
same,Toxicity,Schistosoma mansoni [2],2
same,Toxicity,Schistosoma mansoni [3],0
CCOc1ccc(-c2nc(NC(=O)c3cccc(S(C)(=O)=O)c3)sc2C)cc1,Toxicity,Schistosoma mansoni [1],0
same,Toxicity,Schistosoma mansoni [2],0
same,Toxicity,Schistosoma mansoni [3],0
COc1cccc(NC(=O)Cn2c(C)c(C#N)c3ccccc32)c1,Toxicity,Schistosoma mansoni [1],0
same,Toxicity,Schistosoma mansoni [2],0
same,Toxicity,Schistosoma mansoni [3],0
COc1cc(SC)ccc1C(=O)N1CCCC(C)C1 (stereo not given),Toxicity,Schistosoma mansoni [1],0
same,Toxicity,Schistosoma mansoni [2],0
same,Toxicity,Schistosoma mansoni [3],0
COc1ccc(Nc2nc(N/N=C/c3ccc(O)cc3)nc(Nc3ccc([N+](=O)[O-])cc3)n2)cc1,Toxicity,Schistosoma mansoni [1],0
same,Toxicity,Schistosoma mansoni [2],0
same,Toxicity,Schistosoma mansoni [3],0
Cc1ccc(-c2cc3c(nn2)-c2ccccc2C3=O)cc1,Toxicity,Schistosoma mansoni [1],0
same,Toxicity,Schistosoma mansoni [2],0
same,Toxicity,Schistosoma mansoni [3],0
O=C(Nc1ccc(-c2nc3ccccc3[nH]2)cc1)c1ccc(Cl)c(Cl)c1,Toxicity,Schistosoma mansoni [1],0
same,Toxicity,Schistosoma mansoni [2],0
same,Toxicity,Schistosoma mansoni [3],0
Cc1c(C)n(CC(O)CNC2CCCCC2C)c2ccccc12 (stereo not given),Toxicity,Schistosoma mansoni [1],0
same,Toxicity,Schistosoma mansoni [2],0
same,Toxicity,Schistosoma mansoni [3],0
CCOc1cc(Cl)c(C(C)NC(=O)c2ccccc2)cc1OCC (stereo not given),Toxicity,Schistosoma mansoni [1],0
same,Toxicity,Schistosoma mansoni [2],0
same,Toxicity,Schistosoma mansoni [3],0
COc1ccc(C(=O)NC(c2ccccc2Cl)c2cc(Cl)c3cccnc3c2O)cc1 (stereo not given),Toxicity,Schistosoma mansoni [1],0
same,Toxicity,Schistosoma mansoni [2],2
same,Toxicity,Schistosoma mansoni [3],4
COc1ccc2c(=O)cc(C(Cl)(Cl)Cl)oc2c1,Toxicity,Schistosoma mansoni [1],0
same,Toxicity,Schistosoma mansoni [2],0
same,Toxicity,Schistosoma mansoni [3],3
COc1ccccc1N1CCN(C(CNS(=O)(=O)c2ccc(Cl)cc2)c2cccnc2)CC1 (stereo not given),Toxicity,Schistosoma mansoni [1],0
same,Toxicity,Schistosoma mansoni [2],0
same,Toxicity,Schistosoma mansoni [3],0
COc1ccc(-c2cn3c(C(=O)Nc4ccccc4Cl)c(-c4ccccc4)c4c3n2CCCC4)cc1,Toxicity,Schistosoma mansoni [1],0
same,Toxicity,Schistosoma mansoni [2],0
same,Toxicity,Schistosoma mansoni [3],0
CCn1c(SCC(=O)Nc2cc(C(F)(F)F)ccc2Cl)nc2ccccc2c1=O,Toxicity,Schistosoma mansoni [1],0
same,Toxicity,Schistosoma mansoni [2],0
same,Toxicity,Schistosoma mansoni [3],0
COc1ccc(CN2CCN(Cc3ccccc3)CC2)c(O)c1,Toxicity,Schistosoma mansoni [1],0
same,Toxicity,Schistosoma mansoni [2],0
same,Toxicity,Schistosoma mansoni [3],0
COc1ccc2sc(N(Cc3cccnc3)C(=O)c3ccc(C#N)cc3)nc2c1,Toxicity,Schistosoma mansoni [1],0
same,Toxicity,Schistosoma mansoni [2],0
same,Toxicity,Schistosoma mansoni [3],0
O=C(Nc1ccsc1C(=O)NC1CCCCC1)c1ccc(F)cc1,Toxicity,Schistosoma mansoni [1],2
same,Toxicity,Schistosoma mansoni [2],0
same,Toxicity,Schistosoma mansoni [3],0
COc1ccc2nc(C)cc(Nc3cccc(O)c3)c2c1.Cl,Toxicity,Schistosoma mansoni [1],2
same,Toxicity,Schistosoma mansoni [2],0
same,Toxicity,Schistosoma mansoni [3],0
COc1ccc(C2NCCc3c2[nH]c2ccccc32)cc1CN1CCN(c2ccc(F)cc2)CC1.Cl (stereo not given),Toxicity,Schistosoma mansoni [1],3
same,Toxicity,Schistosoma mansoni [2],4
same,Toxicity,Schistosoma mansoni [3],4
Clc1ccc2[nH]c3c(NCCCN4CCOCC4)ncnc3c2c1,Toxicity,Schistosoma mansoni [1],0
same,Toxicity,Schistosoma mansoni [2],0
same,Toxicity,Schistosoma mansoni [3],0
CC(Oc1ccc(NC(=O)c2cccs2)cc1)C(=O)c1ccc(Cl)cc1 (stereo not given),Toxicity,Schistosoma mansoni [1],0
same,Toxicity,Schistosoma mansoni [2],0
same,Toxicity,Schistosoma mansoni [3],0
COc1ccc(C(=O)C2CC2c2ccc(Cl)cc2)cc1 (stereo not given),Toxicity,Schistosoma mansoni [1],0
same,Toxicity,Schistosoma mansoni [2],0
same,Toxicity,Schistosoma mansoni [3],0
CCCCCCn1c(=N)n(CC(O)COc2cccc(C)c2)c2ccccc21.Cl (stereo not given),Toxicity,Schistosoma mansoni [1],4
same,Toxicity,Schistosoma mansoni [2],4
same,Toxicity,Schistosoma mansoni [3],4
Cc1ccc(-c2cc3nc4c(c(O)n3n2)CCCC4)cc1,Toxicity,Schistosoma mansoni [1],0
same,Toxicity,Schistosoma mansoni [2],0
same,Toxicity,Schistosoma mansoni [3],0
Cc1sc(NC(=O)c2ccccc2)c(C(c2cccs2)N2CCN(c3ccccc3)CC2)c1C (stereo not given),Toxicity,Schistosoma mansoni [1],0
same,Toxicity,Schistosoma mansoni [2],0
same,Toxicity,Schistosoma mansoni [3],0
CN(C)c1ccc(N=Cc2ccc(N3CCOCC3)cc2)cc1,Toxicity,Schistosoma mansoni [1],0
same,Toxicity,Schistosoma mansoni [2],0
same,Toxicity,Schistosoma mansoni [3],0
CCOC(=O)C1=C(C)N=c2sc(=Cc3ccccc3O)c(=O)n2C1c1ccc(OC)c2ccccc12 (stereo not given),Toxicity,Schistosoma mansoni [1],0
same,Toxicity,Schistosoma mansoni [2],0
same,Toxicity,Schistosoma mansoni [3],4
Cc1nc2ccccc2c(O)c1CC=C(Cl)Cl,Toxicity,Schistosoma mansoni [1],0
same,Toxicity,Schistosoma mansoni [2],0
same,Toxicity,Schistosoma mansoni [3],0
CCOC(=O)c1c[nH]c2c(CC)cccc2c1=O,Toxicity,Schistosoma mansoni [1],0
same,Toxicity,Schistosoma mansoni [2],0
same,Toxicity,Schistosoma mansoni [3],3
O=C(NC1CCN(Cc2ccccc2)CC1)c1cc(C(=O)NC2CCN(Cc3ccccc3)CC2)cc(C(=O)NC2CCN(Cc3ccccc3)CC2)c1,Toxicity,Schistosoma mansoni [1],0
same,Toxicity,Schistosoma mansoni [2],0
same,Toxicity,Schistosoma mansoni [3],0
Oc1ccc2ccccc2c1CNc1nc2ccccc2[nH]1,Toxicity,Schistosoma mansoni [1],2
same,Toxicity,Schistosoma mansoni [2],0
same,Toxicity,Schistosoma mansoni [3],0
COc1ccc(C2C(C(=O)Nc3cccc(OC)c3)c3ccccc3C(=O)N2C2CCCCC2)cc1 (stereo not given),Toxicity,Schistosoma mansoni [1],0
same,Toxicity,Schistosoma mansoni [2],0
same,Toxicity,Schistosoma mansoni [3],0
CCC(C)NCC(O)(c1ccc(Cl)cc1)c1ccc(Cl)cc1 (stereo not given),Toxicity,Schistosoma mansoni [1],1
same,Toxicity,Schistosoma mansoni [2],0
same,Toxicity,Schistosoma mansoni [3],0
CCOc1cccc2sc(N(Cc3cccnc3)C(=O)C3CCCCC3)nc12,Toxicity,Schistosoma mansoni [1],0
same,Toxicity,Schistosoma mansoni [2],0
same,Toxicity,Schistosoma mansoni [3],0
CC(C)(C)c1ccc2c(c1)CN(Cc1ccc(Cl)cc1)CO2,Toxicity,Schistosoma mansoni [1],0
same,Toxicity,Schistosoma mansoni [2],0
same,Toxicity,Schistosoma mansoni [3],0
CCC(O)c1ccc(Br)cc1NC(=O)c1cccc(Cl)c1 (stereo not given),Toxicity,Schistosoma mansoni [1],0
same,Toxicity,Schistosoma mansoni [2],0
same,Toxicity,Schistosoma mansoni [3],0
Oc1ccc(C(=C(Cl)Cl)c2ccc(O)cc2)cc1,Toxicity,Schistosoma mansoni [1],0
same,Toxicity,Schistosoma mansoni [2],0
same,Toxicity,Schistosoma mansoni [3],0
COc1cccc(Nc2nc(N)c3ccccc3n2)c1.Cl,Toxicity,Schistosoma mansoni [1],0
same,Toxicity,Schistosoma mansoni [2],0
same,Toxicity,Schistosoma mansoni [3],0
CC1=C(CC(=O)c2cccc([N+](=O)[O-])c2)C(=O)c2ccccc2C1=O,Toxicity,Schistosoma mansoni [1],0
same,Toxicity,Schistosoma mansoni [2],2
same,Toxicity,Schistosoma mansoni [3],2
O=C1c2ccccc2-c2nnc(-c3ccc(Br)cc3)cc21,Toxicity,Schistosoma mansoni [1],0
same,Toxicity,Schistosoma mansoni [2],0
same,Toxicity,Schistosoma mansoni [3],0
COc1ccc(C2c3ccc4ccccc4c3Oc3ncn(CCCn4ccnc4)c(=N)c32)cc1OC (stereo not given),Toxicity,Schistosoma mansoni [1],0
same,Toxicity,Schistosoma mansoni [2],0
same,Toxicity,Schistosoma mansoni [3],0
CC1CC(C)CN(C(=O)c2ccc(Cl)cc2Cl)C1 (stereo not given),Toxicity,Schistosoma mansoni [1],0
same,Toxicity,Schistosoma mansoni [2],0
same,Toxicity,Schistosoma mansoni [3],0
O=C(CCc1ccco1)NC1CCN(CC2(c3ccc(Cl)cc3)CCC2)CC1,Toxicity,Schistosoma mansoni [1],0
same,Toxicity,Schistosoma mansoni [2],0
same,Toxicity,Schistosoma mansoni [3],0
COc1cccc(NC(=O)[C@H](C(C)C)n2c(=O)[nH]c3ccccc3c2=O)c1,Toxicity,Schistosoma mansoni [1],0
same,Toxicity,Schistosoma mansoni [2],0
same,Toxicity,Schistosoma mansoni [3],0
CCCCC(O)(c1ccc(Cl)cc1)C(CN1CCOCC1)c1ccc(Cl)cc1.Cl (stereo not given),Toxicity,Schistosoma mansoni [1],0
same,Toxicity,Schistosoma mansoni [2],0
same,Toxicity,Schistosoma mansoni [3],4
COc1cc(-c2nc(-c3ccc(Sc4ccccc4)cc3)c(-c3ccccc3)[nH]2)cc(OC)c1O,Toxicity,Schistosoma mansoni [1],0
same,Toxicity,Schistosoma mansoni [2],0
same,Toxicity,Schistosoma mansoni [3],0
CCC1(C)CC(CCNCc2ccccc2O)(c2ccc(C)cc2)CCO1 (stereo not given),Toxicity,Schistosoma mansoni [1],2
same,Toxicity,Schistosoma mansoni [2],2
same,Toxicity,Schistosoma mansoni [3],4
Cc1ccc(Cn2c(N3CCC(C(=O)NCc4cccs4)CC3)nc3ccccc32)cc1,Toxicity,Schistosoma mansoni [1],0
same,Toxicity,Schistosoma mansoni [2],0
same,Toxicity,Schistosoma mansoni [3],0
CCN(CC)CCNc1ccnc2cc3ccccc3cc12.O=P(O)(O)O,Toxicity,Schistosoma mansoni [1],2
same,Toxicity,Schistosoma mansoni [2],3
same,Toxicity,Schistosoma mansoni [3],3
CCCc1cc(O)c2c3c(c(=O)oc2c1)CN(C)CC3,Toxicity,Schistosoma mansoni [1],0
same,Toxicity,Schistosoma mansoni [2],0
same,Toxicity,Schistosoma mansoni [3],0
